The results in this text go back to patent US9056865B2, “Pyridine-2-derivatives as smoothened receptor modulators” (Pfizer Inc., priority 2010, dated 2015).

Assay [1] deals with Gli-Luc/MEF cells. Nature of the assay: Gli-Luc/MEF assay. In kind it is cell-based, mouse. The conditions noted are these: Mus musculus, MEF; Shh-stimulated luciferase, 48 hours. As for the experimental part:
The Gli-Luc/MEF cells obtained from Gli-Luc transgenic mice contain a luciferase reporter gene under the control of the Gli response element. Luciferase activity stimulated with Sonic hedgehog ligand was inhibited by Smo inhibitors, and IC50 was subsequently calculated.
Plates were incubated at 37° C. and 5% CO2 overnight. On day two, cells were dosed with test compounds at a final concentration ranging from 3 μM to 50 μM at a 3-time series dilution. Immediately after dosing cells with compounds, recombinant mouse sonic hedgehog (Shh, R&D Systems 464-SH) was added to a final concentration of 2 μg/mL. The cells were incubated with compounds and Shh for 48 hours at 37° C. and 5% CO2. Luciferase assays were conducted on Day 4 using the Bright-Glo Luciferase assay system (Promega E2620) according to Promega's protocol. Briefly, Bright-Glo luciferase reagent was made up and 25 μL were added to each well of the 384-well plate containing media. Plates were kept at room temperature for 5 minutes, and then read on an Envision Luminescence plate reader (Perkin-Elmer). IC50 of the inhibition was calculated by using GraphPad Prism.

In assay [2] the target is human Smo (Homo sapiens (Human), UniProt Q99835). Nature of the assay: Smo radioligand competition binding assay. Particulars: for inhibition at 0.05 µM: 0.05 μM test compound, read-out: Smo % inh. @ 0.05 μM. The protocol: Smo Radioligand Competition Binding Assay
Chain of human Smo (Q99835 181-787): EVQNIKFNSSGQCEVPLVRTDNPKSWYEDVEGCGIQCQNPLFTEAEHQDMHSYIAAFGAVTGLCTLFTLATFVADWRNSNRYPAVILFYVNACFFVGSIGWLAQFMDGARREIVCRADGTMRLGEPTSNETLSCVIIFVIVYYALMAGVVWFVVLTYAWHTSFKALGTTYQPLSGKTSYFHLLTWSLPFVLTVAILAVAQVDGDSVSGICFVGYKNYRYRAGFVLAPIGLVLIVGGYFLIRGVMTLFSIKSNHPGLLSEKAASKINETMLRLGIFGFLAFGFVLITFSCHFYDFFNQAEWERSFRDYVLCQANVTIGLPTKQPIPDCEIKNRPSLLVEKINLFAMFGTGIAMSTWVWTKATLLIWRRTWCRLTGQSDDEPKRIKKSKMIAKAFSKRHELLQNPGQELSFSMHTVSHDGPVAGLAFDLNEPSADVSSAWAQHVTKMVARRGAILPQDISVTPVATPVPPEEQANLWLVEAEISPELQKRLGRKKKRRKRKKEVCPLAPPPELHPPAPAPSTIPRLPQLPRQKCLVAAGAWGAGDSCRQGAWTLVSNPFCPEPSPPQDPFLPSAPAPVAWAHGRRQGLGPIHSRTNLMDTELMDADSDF
Membranes were prepared from a stable cell line created in HEK293FlpIn-TetR cells (Invitrogen) using Flp recombinase-mediated insertion of the pSecTag-FRT/V5-His vector containing a cDNA encoding amino acids […] of human Smo fused to the murine Igk leader sequence to produce a cell surface expressed Smo 181-781 protein. Hygromycin-resistant clones were obtained and stained for LacZ expression (no expression indicates a correct knock-in of fusion cDNA). LacZ-negative cells were analyzed for binding tritiated Smo antagonists. For membrane preparation, the HEK293 cells expressing Smo 181-781 were grown to 90% confluence in nine to fifteen 245 mm×245 mm×22 mm dishes, washed with Dulbecco's PBS (15 mL per dish) and harvested via scraping in 10 mL of DPBS. The cells were collected and centrifuged at 1500 rpm (400×g) for 10 min at 4° C. The cell pellets were re-suspended in 40 mL of cold DPBS and washed by centrifugation at 2300 rpm (950×g max) for 10 minutes at 4° C. The supernatant was aspirated and the cell pellet was snap frozen in a methanol/dry ice bath and stored at −70° C. For membrane preparation, 15 mL of Membrane Preparation Buffer (50 mM Tris-HCl pH 7.5, 250 mM sucrose with Roche complete protease cocktail tablets) was added to the tube containing the cell pellet, then cells are rapidly thawed, and homogenized using an Ultra-Turrax T8 (IKA Labortechnik) set on “6” for 15 seconds for 5-6 times in icy water bath. This homogenate was diluted up to 50 mL using Membrane Preparation Buffer and centrifuged at 35,000 rpm in a Beckman Ti45 rotor (140,000×g) for 35 minutes at 4° C. followed by aspiration of the supernatant and re-suspension of the pellet in 5 mL of Assay Buffer (50 mM Tris-HCl pH 7.5, 100 mM NaCl, 25 mM MgCl2, 1 mM EDTA, and 0.1% protease free bovine serum albumin). The re-suspended pellet was then homogenized in a glass tissue grinder. The re-suspended membranes were aliquoted (0.5 mL aliquots), snap frozen and stored at −70° C. Total protein in the membrane preparation was determined using the Pierce BCA protein assay (Pierce Chemical).
For the binding competition assay, 100 μL of Assay Buffer was added to all the wells of a 96 well GF/B filter plate (Millipore MultiScreen-HTS-FB cat# MSFBN6B50) for 10 minutes to pre-wet the filter prior to evacuation of the buffer (8 inches Hg for 8 seconds). To the pre-wet wells is added: 20 μL of Assay Buffer, 10 μL diluted test agent, 20 μL of a tritiated Smo antagonist (15 nM stock solution), and 50 μL of membrane preparation (40 μg total protein per well). The plates are sealed and mixed at room temperature for 5 min, incubated at room temperature for 2 hours, then washed 5 times with 100 μL/each of wash buffer and vacuum dried for 8 seconds at 8 inches Hg. The plate is then dried for one hour in a 60° C. oven prior to the addition of 45 μL of Microscint 20 (Packard, #6013621) to each well and incubation at RT for 30 minutes to 1 hour. The plate is counted in a TopCount scintillation counter (Perkin Elmer).
Data analysis uses Excel for % Inhibition and Graphpad Prism for IC50 calculation. Total binding (TB, in the absence of inhibitors)=average of tritiated Smo antagonist 3 nM+Smo membrane (40 μg/wells (approx 5000-7000 CPM)). Non-specific binding (NSB)=average of tritiated Smo antagonist (3 nM)+cold Smo antagonist (30 μM)+Smo membrane (approx 600-1200 CPM). Specific binding (SB)=(total binding−non-specific binding). % Inhibition=[1−(compound Specific binding/control Specific binding)]×100%. IC50 is calculated by fitting the data to the four parameter sigmoidal dose-response curve (variable slope) Y=Bottom+(Top-Bottom)/(1+10^((LogEC50−X)*HillSlope)). X is the logarithm of the inhibitor concentration. Y is the response; Y starts at Bottom and goes to Top with a sigmoid shape.
(In general: In a radioligand displacement assay an active substance lowers the binding of a labelled ligand.)

Each structure is given as a SMILES string.

On to `Cc1cccnc1-c1cc(N2CCC(C(=O)N[C@@H]3CCCC[C@H]3O)CC2)ncc1Cl` [Example A-81, 1-(5′-chloro-3-methyl-2,4′-bipyridin-2′-yl)-N-[(1R,2R)-2-hydroxycyclohexyl]piperidine-4-carboxamide], for which, in assay [1], the IC50 was 15.7 nM. In assay [2], the half-inhibitory concentration (IC50) was determined as 32.6 nM and the inhibition at 0.05 µM was 97.9%.
In turn, `Cc1ccc(-c2cccc(N3CCC(NS(C)(=O)=O)CC3)n2)nc1` [Example A-115, N-[1-(5′-methyl-2,2′-bipyridin-6-yl)piperidin-4-yl]methanesulfonamide] gave an IC50 in assay [1] of 16 nM. For the same molecule, in assay [2], the concentration for half-maximal inhibition (IC50) amounted to 22 nM and the inhibition at 0.05 µM amounted to 93%.
In the case of `Cc1cccnc1-c1cc(N2CCC(C(=O)NC3CCOC4(CCN(C)CC4)C3)CC2)ncc1Cl` (stereo not drawn) [Example A-84, 1-(5′-chloro-3-methyl-2,4′-bipyridin-2′-yl)-N-(9-methyl-1-oxa-9-azaspiro[5.5]undec-4-yl)piperidine-4-carboxamide], the IC50 in assay [1] was determined as 92 nM. In addition, in assay [2], the half-inhibitory concentration (IC50) stood at 283 nM and the inhibition at 0.05 µM is 71.5%.
Consider `Cc1cccnc1-c1cc(N2CCC(OCC(=O)NC(C)(C)C)CC2)ncc1Cl` [Example A-42, N-tert-butyl-2-{[1-(5′-chloro-3-methyl-2,4′-bipyridin-2′-yl)piperidin-4-yl]oxy}acetamide], for which the figures for the concentration for half-maximal inhibition (IC50) in assay [1] and in assay [2] were 37.1 nM and 125 nM, respectively. The inhibition at 0.05 µM in assay [2] is 80.5%.
For `Cc1cc(F)cnc1-c1cc(N2CCC(NS(=O)(=O)CC(C)(C)O)CC2)ncc1Cl` [Example A-153, N-[1-(5′-chloro-5-fluoro-3-methyl-2,4′-bipyridin-2′-yl)piperidin-4-yl]-2-hydroxy-2-methylpropane-1-sulfonamide], the IC50 in assay [1] was 4.71 nM; in assay [2], 10.6 nM. In addition, the inhibition at 0.05 µM in assay [2] is 96.4%.
Regarding `Cc1cccnc1-c1cc(N2CCC(C(=O)NC3CCCCC3O)CC2)ncc1Cl` (stereo not drawn) [Example A-72, 1-(5′-chloro-3-methyl-2,4′-bipyridin-2′-yl)-N-(2-hydroxycyclohexyl)piperidine-4-carboxamide], in assay [1], it took 22.5 nM to reach half-maximal inhibition (IC50). Also, in assay [2], the concentration for half-maximal inhibition (IC50) stood at 28.3 nM and the inhibition at 0.05 µM is 96.3%.
Consider `CS(=O)(=O)NC1CCN(c2cc(-c3ncc(Cl)cc3Cl)c(Cl)cn2)CC1` [Example A-12, N-[1-(3,5,5′-trichloro-2,4′-bipyridin-2′-yl)piperidin-4-yl]methanesulfonamide], for which the half-maximal inhibitory concentration (IC50) in assay [1] is 53.4 nM. Besides, in assay [2], the IC50 came out at 18.8 nM and the inhibition at 0.05 µM was found to be 88%.
`Cc1cnc(-c2cc(N3CCN(C(=O)CCO)CC3)ncc2Cl)c(C)c1` [Example A-106, 3-[4-(5′-chloro-3,5-dimethyl-2,4′-bipyridin-2′-yl)piperazin-1-yl]-3-oxopropan-1-ol]: inhibition in assay [1] was half-maximal at 36.5 nM (IC50). Further, in assay [2], the IC50 stood at 65.7 nM and the inhibition at 0.05 µM was 86%.
As to `CCS(=O)(=O)NC1CCN(c2cc(-c3ncc(C)cc3C)c(Cl)cn2)CC1` [Example A-121, N-[1-(5′-chloro-3,5-dimethyl-2,4′-bipyridin-2′-yl)piperidin-4-yl]ethanesulfonamide], the concentration for half-maximal inhibition (IC50) in assay [1] was 4.25 nM. In assay [2], the concentration for half-maximal inhibition (IC50) is 11.6 nM and the inhibition at 0.05 µM was 101%.
Consider `Cc1cnc(-c2ccnc(N3CCN(C(=O)CN4C[C@@H](C)O[C@@H](C)C4)CC3)c2)c(C)c1` [Example A-156, 1-[4-(3,5-dimethyl-2,4′-bipyridin-2′-yl)piperazin-1-yl]-2-[(2R,6S)-2,6-dimethylmorpholin-4-yl]ethanone], for which the figures for the IC50 in assay [1] and in assay [2] were 6.57 nM and 12.1 nM, respectively. In addition, the inhibition at 0.05 µM in assay [2] turned out to be 102%.
The molecule `Cc1cccnc1-c1cc(N2CCC(C(=O)N[C@@H]3CCN(S(C)(=O)=O)C3)CC2)ncc1Cl` [Example A-57, 1-(5′-chloro-3-methyl-2,4′-bipyridin-2′-yl)-N-[(3R)-1-(methylsulfonyl)pyrrolidin-3-yl]piperidine-4-carboxamide] gave a half-inhibitory concentration (IC50) in assay [1] of 78.2 nM. In addition, in assay [2], the IC50 came out at 90.7 nM and the inhibition at 0.05 µM is 87.9%.
In the case of `CS(=O)(=O)NC1CCN(c2ncc(Cl)c(-c3ccccn3)n2)CC1` [Example A-45, N-[1-(5-chloro-4-pyridin-2-ylpyrimidin-2-yl)piperidin-4-yl]methanesulfonamide], in assay [1], inhibition was half-maximal at 58.2 nM (IC50). Besides, in assay [2], the IC50 was 83.7 nM and the inhibition at 0.05 µM was determined as 80.1%.
With `COCCS(=O)(=O)NC1CCN(c2ccc(Cl)c(-c3ccccn3)n2)CC1` [Example A-123, N-[1-(3-chloro-2,2′-bipyridin-6-yl)piperidin-4-yl]-2-methoxyethanesulfonamide], the IC50 in assay [1] turned out to be 14.1 nM. In assay [2], the IC50 turned out to be 26.7 nM and the inhibition at 0.05 µM came to 90.4%.
In turn, `Cc1cccnc1-c1cc(N2CCC(C(=O)N3CC(S(=O)(=O)CC4CC4)C3)CC2)ncc1Cl` [Example A-62, 5′-chloro-2′-[4-({3-[(cyclopropylmethyl)sulfonyl]azetidin-1-yl}carbonyl)piperidin-1-yl]-3-methyl-2,4′-bipyridine] had a half-inhibitory concentration (IC50) in assay [1] of 106 nM. Further, in assay [2], the IC50 was 234 nM and the inhibition at 0.05 µM was 72.4%.
`Cc1cnc(-c2cc(N3CCN(C(=O)CCS(C)(=O)=O)CC3)ncc2F)c(C)c1` [Example A-142, 1-[4-(5′-fluoro-3,5-dimethyl-2,4′-bipyridin-2′-yl)piperazin-1-yl]-3-(methylsulfonyl)propan-1-one] gave a half-maximal inhibitory concentration (IC50) in assay [1] of 16.6 nM. Also, in assay [2], the IC50 was 20.4 nM and the inhibition at 0.05 µM worked out at 92.7%.
Taken in the same sequence, the figures for `O=S(=O)(CCO)NC1CCN(c2ccc(Cl)c(-c3ccccn3)n2)CC1` [Example A-126, N-[1-(3-chloro-2,2′-bipyridin-6-yl)piperidin-4-yl]-2-hydroxyethanesulfonamide] were 10.3 nM, 15.2 nM and 96.1%.
For `Cc1ccc(-c2nc(N3CCC(NS(C)(=O)=O)CC3)ccc2Cl)nc1` [Example A-117, N-[1-(3-chloro-5′-methyl-2,2′-bipyridin-6-yl)piperidin-4-yl]methanesulfonamide], the IC50 came out at 11 nM in assay [1] and 17 nM in assay [2]. Moreover, in assay [2], the inhibition at 0.05 µM was 96%.
`CS(=O)(=O)NC1CCN(c2ncc(Cl)c(-c3ccccn3)c2F)CC1` [Example A-138, N-(1-(5′-chloro-3′-fluoro-2,4′-bipyridin-2′-yl)piperidin-4-yl)methanesulfonamide] registered a concentration for half-maximal inhibition (IC50) in assay [1] of 29.4 nM. Further, in assay [2], the 50% inhibitory concentration (IC50) was found to be 84.6 nM and the inhibition at 0.05 µM amounted to 80.5%.

As a reminder, the IC50 is the midpoint of a concentration-inhibition curve.
